# Measured values taken from patent US20150374784A1, “COMPOSITIONS AND METHODS FOR REDUCING GERM CELL DEATH” (Los Angeles Biomedical Research Institute at Harbor-UCLA …, priority 2014, published 2015).
# Entries after “also recorded” stand apart in the source; their conditions may differ.
# Assays:
# [1] = tested on: germ cells in seminiferous tubules; assay: Germ cell apoptosis in mouse seminiferous tubule cultures ex vivo (TUNEL); type: cell-based
# Method: A total of 15 young adult (12-13 week-old) mice were used for these ex vivo studies. The animals were sacrificed with a 5% pentobarbital (200 mg/Kg) IP injection. Testes were dissected and after removing the tunica albuginea, seminiferous tubules isolated from testes were cut into small segments under a dissecting microscope and light and dark segments were separated by dissection. Ten to twelve segments were placed (2 mm in length) in each well on a six well plate with 2 ml serum free Ham F-10 culture medium (GIBCO, Life Technologies, Thermo Fisher Scientific Corp., Carlsbad, Calif.) with the following treatments: control (Con, n=10), heat (43° C., 15 minutes, used as a positive control, n=10); HN 10 μg/mL (n=9); DOX 10 mcM (Dox10, n=10); and DOX 10 mcM+Humanin 10 μg/mL (Dox10+HN, n=10). For these experiments, n represents the total number of times the treatment was repeated using different animals. After 12 hours of incubation at 34° C. the seminiferous tubules from each treatment group were used to make “squashed” seminiferous tubule samples on a slide for TUNEL (TdT-mediated dUTP nick-end labeling) assay to detect germ cell apoptosis (Erkkila, et al., 1997; Toppari & Parvinen, 1985). To quantify the rate of germ cell apoptosis under a light microscope at 400× magnification, a square grid fitted within the eyepiece provided a reference area of 62,500 μm^2. The TUNEL positive apoptotic germ cells within the frame of grid were counted in 4 segments of seminiferous tubules in each group. The incidence of germ cell apoptosis was expressed as the number of apoptotic germ cells per mm^2.
# A total of 15 mice were used for ex vivo studies. The animals were sacrificed and seminiferous tubules isolated from testes were cut into small segments under a dissecting microscope to identify light (early stages I-IV and late stages XI-XII) of the seminiferous epithelium) and dark (middle stages VII-VIII) segments. Ten to twelve light segments (2 mm in length) were placed per well on a six well plate with 2 ml serum free medium of F-10 Ham nutrient mixture (Gibco, Life Technologies, Grand Island, N.Y.) following these treatments: control (Con, n=15 where n is the number of times the treatment was repeated with segments obtained from different donor animals), heat (43° C., 15 min.; used as a positive control, n=10), HN 10 μg/mL (HN, n=9), doxorubicin 1 μM (Dox1, n=7), doxorubicin 1 μM+HN 10 μg/mL (Dox1+HN, n=7), doxorubicin 10 μM (Dox10, n=10), and doxorubicin 10 μM+HN 10 μg/mL (Dox10+HN, n=10). After 12 hours of incubation at 34° C. with 5% CO2, the seminiferous tubules from the seven treatment groups were used to make “squashed” seminiferous tubule preparations on a slide for TUNEL assay to detect germ cell apoptosis (Erkkila K, et al., 1997). To quantify the rate of germ cell apoptosis, the squashed segments of seminiferous tubules were examined with an American Optical Microscope (Scientific Instruments, Buffalo, N.Y.) with a 40×objective and a 10×eyepiece lens. A square grid fitted within the eyepiece provided a reference area of 62,500 μm^2. The TUNEL positive apoptotic germ cells within the frame of grid were counted in 4 segments of seminiferous tubules in each group. The incidence of germ cell apoptosis was expressed as the number of apoptotic germ cells per mm^2.
# male germ cells = type: in vivo; settings: B16 tumor-bearing mice
# Method: (§1) A total of 25 young adult mice (10-12 weeks) were randomly divided into 5 groups (n=5 per group). Five mice were used as control. Twenty mice were inoculated intravenously with B16 murine melanoma cells (2×10^5 cells/mouse). Among these 20 tumor-inoculated mice, 5 mice received no further treatment. After one week, the remaining 15 mice were divided into 3 groups and injected with: 1) HNG daily IP (5 mg/Kg body weight) for 2 weeks; 2) CP (200 mg/Kg body weight IP single injection); 3) combined CP with HNG treatment (same doses as above). All mice were sacrificed 3 weeks after tumor inoculation, and 2 weeks after HNG and/or CP treatment. The animals were sacrificed with 5% pentobarbital (200 mg/kg body weight) IP injection after which blood was collected from the right atrium of the heart. One of the testes from each mouse was immersed fixed in Bouin's solution, and the mice were perfused with saline and subsequently perfuse-fixed with 5% glutaraldehyde in 0.05 M cacodylate buffer (pH 7.4). The lungs were dissected out and post fixed in 5% glutaraldehyde solution for 24 hours and stored in cacodylate buffer at 4° C. for the subsequent tumor count (Lue, et al., 2010; Lue, et al., 2009).
# 4T1 cells = assay: 4T1 mouse mammary cancer model, tumor size and weight; settings: in vivo
# Method: A mouse mammary cancer model was used which utilizes 4T1 cells transfected with the luciferase gene. Growth and size of 4T1 mammary tumors were detected by bioluminescence imaging (IVIS Luminia II, Perkin Elmer, Waltham, Mass.). Mice (n=5 to 7 per group) were inoculated with 1×10^6 4 T1 cells into the right third mammary gland, and 7 days later they were left untreated or treated with HNG (5 mg/kg/day IP), CP (100 mg/Kg single IP) or HNG+CP for 14 days. Bioluminescence imaging was conducted at days 7 and 12. Animals were sacrificed and tumors were removed on day 14 after the start of treatment. Mammary tumors were smaller in CP and CP+HNG groups compared to the untreated and HNG-treated animals (Data images not shown).
# [2] = tested on: B16 murine melanoma cells; assay: Metastatic lung tumors in mouse B16 melanoma model (Experiments 3 and 4); type: in vivo
# Method: as §1
# Experiment 3 was repeated after inoculation of B16 melanoma tumor at week 1 and then treated with the following treatment starting at week 2 (n=5 mice per group): 1). No treatment; 2). HNG IP injections 5 mg/Kg daily; 3) CP 200 mg/Kg single IP injection; 4) HNG 5 mg/Kg/day+CP; 5). HNG IP injections 15 mg/Kg daily; and 6). HNG 15 mg/Kg/day+CP. All animals were euthanized and perfused with 4% paraformaldehyde at the end of week 3. Lungs and testes were collected and processed as in experiment 3.
# B16 melanoma tumors in the lung were quantified by counting the number of tumors on the surface of the lungs under stereomicroscopy (Collisson, et al., 2003; Craft, et al., 2005). The size of the tumor was measured using histomorphometry and expressed as average size of tumor. The appearance of the melanoma cells were reviewed and characterized by an expert pathologist.
# IGF-1 = assay: Plasma IGF-1 in mice bearing metastatic lung melanomas; type: in vivo, mouse; settings: 14 days; HNG 5 mg/kg/day IP; CP 200 mg/kg IP single injection
# [3] = Experiment 4, vs non-treated, HNG at both 5 mg/kg BW and 15 mg/kg BW, CP 200 mg/Kg
Molecule,"number of apoptotic germ cells induced by DOX ([1]; HN 10 μg/mL + DOX 10 μM, 12 hours)","apoptosis induced by low dose doxorubicin ([1]; HN 10 μg/mL + doxorubicin 1 μM, 12 hours)","germ cell apoptosis, HN treatment alone compared with control ([1]; HN 10 μg/mL, 12 hours ex vivo culture)","heat induced germ cell apoptosis ([1]; HN 10 μg/mL, heat 43° C., 15 min)",testis weight (male germ cells; 2 weeks after CP 200 mg/Kg single IP),"germ cell apoptosis (percent of seminiferous tubules containing apoptotic germ cells) (male germ cells; 2 weeks after treatment, CP 200 mg/Kg single IP, HNG 5 mg/Kg daily IP)",mammary tumor size (bioluminescence imaging) (4T1 cells),"size of the melanoma metastasis on the surface of the lungs ([2]; Experiment 3, vs non-treated tumor-bearing mice)","number of metastatic tumors on the surface of the lungs ([2]; Experiment 3, vs non-treated tumor-bearing mice, HNG 5 mg/Kg daily IP 2 weeks, CP 200 mg/Kg single IP)","number of lung tumors [2, 3]","size of the lung tumors [2, 3]","histology of metastatic lung melanoma cells ([2]; HNG 5 mg/kg BW, CP, or both, monohydrate)",plasma IGF-1 levels (IGF-1)
"MAPRGFSCLLLLTSEIDLPVKRRA [HN, 24-amino acid mitochondrial derived peptide]",significantly reduced the number of apoptotic germ cells,did not significantly decrease apoptosis,had no significant effect on germ cell apoptosis,prevented the heat induced germ cell apoptosis,–,–,–,–,–,–,–,–,–
"O=P1(N(CCCl)CCCl)NCCCO1 (stereo not shown) [CP, cyclophosphamide monohydrate]",–,–,–,–,significantly decreased the testis weight,significantly increased germ cell apoptosis,smaller,decreased number of tumors but also tumor size,decreased number of tumors,significantly decreased both the number and size of the tumors,significantly decreased both the number and size of the tumors,decreased the number of metastatic melanoma cells; also recorded: induced minor differentiation of melanoma cells,modestly suppressed IGF-1
